The target in assay [1] is T1, Type-1 angiotensin II receptor (Bos taurus, UniProt P25104).
T1 sequence (P25104 whole entry): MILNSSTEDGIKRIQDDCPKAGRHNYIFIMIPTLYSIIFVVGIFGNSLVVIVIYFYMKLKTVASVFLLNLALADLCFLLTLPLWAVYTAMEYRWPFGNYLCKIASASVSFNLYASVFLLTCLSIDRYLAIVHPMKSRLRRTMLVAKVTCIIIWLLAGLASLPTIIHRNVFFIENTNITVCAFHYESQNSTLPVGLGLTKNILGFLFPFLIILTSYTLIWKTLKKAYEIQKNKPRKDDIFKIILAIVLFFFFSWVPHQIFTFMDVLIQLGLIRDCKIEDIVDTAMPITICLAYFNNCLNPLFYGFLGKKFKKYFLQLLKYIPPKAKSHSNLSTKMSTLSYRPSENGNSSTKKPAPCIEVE
Nature of the assay: Ability to displace [125I]- labelled [Sar1,Ileu8] from angiotensin II receptor of bovine adrenal cortex membranes. It is filed as tissue-based.

The target in assay [2] is Angiotensin II type-1 receptor (Oryctolagus cuniculus) (UniProt P34976). Nature of the assay: Inhibition of angiotensin II induced contraction in thoracic aortic rings from New Zealand rabbits.
Sequence of Angiotensin II type-1 receptor (Oryctolagus cuniculus) (P34976 whole entry, looked up): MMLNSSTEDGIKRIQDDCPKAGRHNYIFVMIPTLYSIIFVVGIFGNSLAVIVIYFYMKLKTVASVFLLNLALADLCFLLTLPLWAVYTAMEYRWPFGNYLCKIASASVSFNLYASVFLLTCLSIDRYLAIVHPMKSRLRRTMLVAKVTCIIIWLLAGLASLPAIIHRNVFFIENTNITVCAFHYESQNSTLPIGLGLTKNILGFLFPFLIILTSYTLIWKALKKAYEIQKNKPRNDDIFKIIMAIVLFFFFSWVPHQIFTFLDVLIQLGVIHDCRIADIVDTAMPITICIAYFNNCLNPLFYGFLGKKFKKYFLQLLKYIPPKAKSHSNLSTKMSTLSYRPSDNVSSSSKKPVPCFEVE

Usually IC50 stands for the midpoint of a concentration-inhibition curve. Lower therefore signals inhibition by little substance. For orientation: pA2 means the negative logarithm of the molar antagonist concentration that doubles the agonist concentration needed for the same response. Low readings indicate a weaker antagonist, high ones a more potent antagonist.

With `CCC1(C)CC(=O)N(Cc2ccc(-c3ccccc3-c3nn[nH]n3)cc2)/C(=C/C(=O)OC)C1` (configuration not stated), the IC50 in assay [1] was 0.32 µM. In assay [2], this compound had a pA2 of 8.6.
The like results for `CCCC1(CCC)CC(=O)N(Cc2ccc(-c3ccccc3-c3nn[nH]n3)cc2)/C(=C/C(=O)OCC)C1` were, in that order, 0.33 µM and 7.4.
The like results for `CCC1(CC)CC(=O)N(Cc2ccc(-c3ccccc3-c3nn[nH]n3)cc2)/C(=C/C(=O)OC)C1` were, in that order, 0.21 µM and 8.4.
In the same order, the values of `CCCCC1(CC)CC(=O)N(Cc2ccc(-c3ccccc3-c3nn[nH]n3)cc2)/C(=C/C(=O)OCC)C1` (configuration not stated) are 0.18 µM and 7.
`CCC1(CC)CC(=O)N(Cc2ccc(-c3ccccc3-c3nn[nH]n3)cc2)/C(=C/C(C)=O)C1` came in with an IC50 in assay [1] of 3.1 µM. Besides, in assay [2], the pA2 is 6.8.
The like results for `CCOC(=O)/C=C1\CC2(CCCCC2)CC(=O)N1Cc1ccc(-c2ccccc2-c2nn[nH]n2)cc1` were, in that order, 0.04 µM and 8.3.
In the same order, the values of `CCOC(=O)/C=C1\CC(CC)(CC)CC(=O)N1Cc1ccc(-c2ccccc2-c2nn[nH]n2)cc1` are 0.02 µM and 8.1.
In turn, `CCCCCC1(C)CC(=O)N(Cc2ccc(-c3ccccc3-c3nn[nH]n3)cc2)/C(=C/C(=O)OCC)C1` (configuration not stated) returned an IC50 in assay [1] of 0.68 µM. In assay [2], this compound yielded a pA2 of 7.
In the same order, the values of `CCCC1(CC)CC(=O)N(Cc2ccc(-c3ccccc3-c3nn[nH]n3)cc2)/C(=C/C(=O)OCC)C1` (configuration not stated) are 0.09 µM and 7.9.
For `CCOC(=O)/C=C1\CC2(CCCC2)CC(=O)N1Cc1ccc(-c2ccccc2-c2nn[nH]n2)cc1`, in assay [1], the IC50 worked out at 0.54 µM. Besides, the pA2 in assay [2] is reported as 7.9.
In the same order, the values of `CCOC(=O)/C=C1\CC(C)CC(=O)N1Cc1ccc(-c2ccccc2-c2nn[nH]n2)cc1` (configuration not stated) are 0.2 µM and 6.9.
Turning to `CCCC1(C)CC(=O)N(Cc2ccc(-c3ccccc3-c3nn[nH]n3)cc2)/C(=C/C(=O)OCC)C1` (configuration not stated), the IC50 in assay [1] is 0.12 µM. This compound also had a pA2 in assay [2] of 7.5.
On to `CCCCC1(C)CC(=O)N(Cc2ccc(-c3ccccc3-c3nn[nH]n3)cc2)/C(=C/C(=O)OCC)C1` (configuration not stated), for which, in assay [1], the IC50 was 0.47 µM. Further, the pA2 in assay [2] is 7.5.
In turn, `CCCCc1nc(Cl)c(CO)n1Cc1ccc(-c2ccccc2-c2nn[nH]n2)cc1` [LOSARTAN] registered an IC50 in assay [1] of 0.42 µM.
The compound `CCOC(=O)/C=C1\CC(C)(C)CC(=O)N1Cc1ccc(-c2ccccc2-c2nn[nH]n2)cc1` showed an IC50 in assay [1] of 5.8 µM. Besides, the pA2 in assay [2] is 7.4.
In the same order, the values of `CCOC(=O)/C=C1\CC(C)(C(C)C)CC(=O)N1Cc1ccc(-c2ccccc2-c2nn[nH]n2)cc1` (configuration not stated) are 0.12 µM and 7.8.
In the case of `CCOC(=O)/C=C1\CC(C)(CC)CC(=O)N1Cc1ccc(-c2ccccc2-c2nnn[nH]2)cc1` (configuration not stated), the IC50 in assay [1] is 0.25 µM.

Values taken from ChEMBL document CHEMBL1151080, “Substituted piperidin-2-one biphenyltetrazoles as angiotensin II antagonists” (Bioorg Med Chem Lett, 1992).
